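Exposure lasted 48 hours, with cells grown in 96-well plates and compounds tested at five concentrations. The concentration for full growth arrest is given as TGI.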
Tests used:
Experiment in all cases: NCI tumour cell line growth inhibition, 48 h
[1] = test system: 786-0 renal
[2] = test system: A498 renal
[3] = test system: A549 NSCLC
[4] = test system: ACHN renal
[5] = test system: BT-549 breast
[6] = test system: CAKI-1 renal
[7] = test system: CCRF-CEM leukemia
[8] = test system: COLO 205 colon
[9] = test system: DU-145 prostate
[10] = test system: EKVX NSCLC
[11] = test system: HCC-2998 colon
[12] = test system: HCT-116 colon
[13] = test system: HCT-15 colon
[14] = test system: HL-60(TB) leukemia
[15] = test system: HOP-62 NSCLC
[16] = test system: HOP-92 NSCLC
[17] = test system: HS 578T breast
[18] = test system: HT29 colon
[19] = test system: IGROV1 ovarian
[20] = test system: K-562 leukemia
[21] = test system: KM12 colon
[22] = test system: LOX IMVI melanoma
[23] = test system: M14 melanoma
[24] = test system: MALME-3M melanoma
[25] = test system: MCF7 breast
[26] = test system: MDA-MB-231 breast
[27] = test system: MDA-MB-435
[28] = test system: MDA-N
[29] = test system: MOLT-4 leukemia
[30] = test system: NCI-H226 lung
[31] = test system: NCI-H23 lung
[32] = test system: NCI-H460 lung
[33] = test system: NCI-H522 lung
[34] = test system: NCI/ADR-RES ovarian
[35] = test system: OVCAR-3 ovarian
[36] = test system: OVCAR-4 ovarian
[37] = test system: OVCAR-5 ovarian
[38] = test system: OVCAR-8 ovarian
[39] = test system: PC-3 prostate
[40] = test system: RPMI-8226 leukemia
[41] = test system: RXF 393 renal
[42] = test system: SF-268 CNS
[43] = test system: SF-295 CNS
[44] = test system: SF-539 CNS
[45] = test system: SK-MEL-2 melanoma
[46] = test system: SK-MEL-28 melanoma
[47] = test system: SK-MEL-5 melanoma
[48] = test system: SK-OV-3 ovarian
[49] = test system: SN12C renal
[50] = test system: SNB-19 CNS
[51] = test system: SNB-75 CNS
[52] = test system: SR leukemia
[53] = test system: SW-620 colon
[54] = test system: T-47D breast
[55] = test system: TK-10 renal
[56] = test system: U251 CNS
[57] = test system: UACC-257 melanoma
[58] = test system: UACC-62 melanoma
[59] = test system: UO-31 renal

CCC1CN2CCc3c([nH]c4ccccc34)[C@@](C(=O)OC)(c3cc4c(cc3OC)N(C)C3C(O)(C(=O)OC)C(C(=O)OC)C5(CC)C=CCN6CCC43C65)C[C@@H](C2)[C@@H]1C(C)(C)C (stereo partly drawn)
TGI [1]: 7.16 µM | TGI [2]: 1.12 µM | TGI [3]: > 10 µM | TGI [4]: > 10 µM | TGI [5]: > 8.68 µM | TGI [6]: > 10 µM | TGI [7]: > 5.53 µM | TGI [8]: > 6.1 µM | TGI [9]: 9.32 µM | TGI [10]: > 10 µM | TGI [11]: 1.52 µM | TGI [12]: 2.85 µM | TGI [13]: 2.82 µM | TGI [14]: 1.23 µM | TGI [15]: 1.25 µM | TGI [16]: 8.19 µM | TGI [17]: > 6.86 µM | TGI [18]: > 2.64 µM | TGI [19]: > 10 µM | TGI [20]: 9.73 µM | TGI [21]: > 5.72 µM | TGI [22]: 2 µM | TGI [23]: 8.22 µM | TGI [24]: 2.95 µM | TGI [25]: > 10 µM | TGI [26]: 3.42 µM | TGI [27]: 0.462 µM | TGI [28]: 0.424 µM | TGI [29]: 8.12 µM | TGI [30]: 0.902 µM | TGI [31]: > 6.31 µM | TGI [32]: 2.34 µM | TGI [33]: 3.56 µM | TGI [34]: > 7.23 µM | TGI [35]: > 2.85 µM | TGI [36]: > 10 µM | TGI [37]: > 10 µM | TGI [38]: > 3.79 µM | TGI [39]: 3.26 µM | TGI [40]: > 4.43 µM | TGI [41]: > 10 µM | TGI [42]: > 10 µM | TGI [43]: 0.555 µM | TGI [44]: 2.31 µM | TGI [45]: > 4.02 µM | TGI [46]: > 10 µM | TGI [47]: 1.25 µM | TGI [48]: > 10 µM | TGI [49]: 9.93 µM | TGI [50]: > 2.53 µM | TGI [51]: > 10 µM | TGI [52]: > 6.41 µM | TGI [53]: > 10 µM | TGI [54]: > 10 µM | TGI [55]: > 10 µM | TGI [56]: > 3.52 µM | TGI [57]: > 7.97 µM | TGI [58]: > 10 µM | TGI [59]: > 6.12 µM

O=C1C2CC[C@@H]3C(=O)C(Cl)(Cl)[C@@H]3CCC2C1(Cl)Cl (stereo partly drawn)
TGI [1]: > 100 µM | TGI [2]: > 100 µM | TGI [3]: > 100 µM | TGI [4]: > 100 µM | TGI [5]: > 100 µM | TGI [6]: > 100 µM | TGI [7]: 63.8 µM | TGI [8]: > 100 µM | TGI [9]: > 100 µM | TGI [10]: > 100 µM | TGI [11]: > 100 µM | TGI [12]: > 100 µM | TGI [13]: > 100 µM | TGI [14]: 16.7 µM | TGI [15]: > 29.7 µM | TGI [16]: > 100 µM | TGI [17]: > 100 µM | TGI [18]: > 100 µM | TGI [19]: > 100 µM | TGI [20]: > 100 µM | TGI [21]: > 100 µM | TGI [22]: > 100 µM | TGI [23]: > 100 µM | TGI [24]: > 100 µM | TGI [25]: > 91.1 µM | TGI [26]: > 100 µM | TGI [27]: > 100 µM | TGI [28]: > 100 µM | TGI [29]: 74.7 µM | TGI [30]: > 100 µM | TGI [31]: > 100 µM | TGI [32]: > 100 µM | TGI [33]: > 100 µM | TGI [34]: > 100 µM | TGI [35]: > 100 µM | TGI [36]: > 100 µM | TGI [37]: > 100 µM | TGI [38]: > 100 µM | TGI [39]: > 100 µM | TGI [40]: > 100 µM | TGI [41]: > 100 µM | TGI [42]: > 100 µM | TGI [43]: > 100 µM | TGI [44]: > 90.5 µM | TGI [45]: > 100 µM | TGI [46]: > 100 µM | TGI [47]: > 100 µM | TGI [48]: > 100 µM | TGI [49]: > 100 µM | TGI [50]: > 100 µM | TGI [51]: > 100 µM | TGI [52]: 70.3 µM | TGI [53]: > 100 µM | TGI [54]: > 100 µM | TGI [55]: > 100 µM | TGI [56]: > 100 µM | TGI [57]: > 100 µM | TGI [58]: > 100 µM | TGI [59]: > 100 µM

From PubChem BioAssay (NCI)
